The results in this text go back to patent US12624026B2, “Inhibitors of SARM1” (Disarm Therapeutics, Inc., priority 2018, dated 2026).

One test deals with mouse dorsal root ganglion (DRG) drop culture. Put plainly: Axon degeneration assay in mouse DRG drop culture. Type of test: cell-based. The settings on record: protection of axon fragmentation, axonal transection or chemotoxic stimuli. As to the method:
This Example illustrates an in vitro axon degeneration assay used to characterize compounds of Formula I or Formula II. This assay is used to test the efficacy of the compounds of Formula I or Formula II to prevent axonal degeneration in a mouse dorsal root ganglion (DRG) drop culture.
Mouse DRG Drop culture: Mouse dorsal root ganglion neurons (DRGs) were dissected out of E12.5 CD1 mice (50 ganglion per embryo) and incubated with 0.5% Trypsin solution containing 0.02% EDTA (Gibco) at 37° C. for 15 min. The cells were then triturated by gentle pipetting and washed 3 times with DRG growth medium (Neurobasal medium (Gibco) containing 2% B27 (Invitrogen), 100 ng/ml 2.5S NGF (Harland Bioproducts), […] 5-fluoro-2′deoxyuridine (Sigma), penicillin, and streptomycin). Cells were suspended in the DRG growth medium. DRG drop cultures were created by spotting 5000 cells/well into the center of each well of a 96-well tissue culture plate coated with poly-D-Lysine (0.1 mg/ml; Sigma) and laminin ([…]; Invitrogen). Cells were allowed to adhere to the plates in a humidified tissue culture incubator (5% CO2) for 15 min and then DRG growth medium was gently added ([…]).
Axon degeneration assay: Axonal degeneration was stimulated either by manual axonal transection using a scalpel blade, or chemotoxic stimuli. After an appropriate experimental time period, the DRG cultures were fixed in 1% PFA plus sucrose and kept in the fridge prior to imaging. Bright-field images of DRG axons and cell bodies were collected using the 20× water immersion lens of a Phenix automated confocal microscope (PerkinElmer) and quantitation of axonal performed using in-house developed scripts (Acapella, PerkinElmer).
Broadly, the IC50 is the concentration at which inhibition is half-maximal. As for `N#Cc1c(O)nsc1Nc1ccccc1C(F)(F)F` [Example 6], the IC50 lay within 10 to 30 µM.
On the same count and under the same terms, the same measure for `Cc1ccccc1Nc1snc(O)c1C#N` [Example 7]: 10 to 30 µM; for `N#Cc1c(O)nsc1Nc1cccc(C(F)(F)F)c1` [Example 12]: under 10 µM.
`N#Cc1c(O)nsc1Nc1cccc2ncccc12` [Example 27] had an IC50 of under 10 µM.
As to `Cn1sc(Nc2ccccc2C(F)(F)F)c(C#N)c1=O` [Example 31], the IC50 was 10 to 30 µM.

Another test has as its target T1, SARM1 SAM-TIR (Homo sapiens, UniProt Q6SZW1).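 Note: inhibition of SARM1 SAM-TIR NADase activity, i.e. NAD+ cleavage, using lysate of NRK1-HEK293T cells overexpressing the SAM-TIR fragment.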
T1 construct: a fragment of the SARM1 molecule encompassing the SAM and TIR domains; made in house; host or cells: NRK1-HEK293T cells, transiently transfected; the cleared, unpurified lysate was used as the enzyme
T1 sequence (Q6SZW1 409-724 limits assumed): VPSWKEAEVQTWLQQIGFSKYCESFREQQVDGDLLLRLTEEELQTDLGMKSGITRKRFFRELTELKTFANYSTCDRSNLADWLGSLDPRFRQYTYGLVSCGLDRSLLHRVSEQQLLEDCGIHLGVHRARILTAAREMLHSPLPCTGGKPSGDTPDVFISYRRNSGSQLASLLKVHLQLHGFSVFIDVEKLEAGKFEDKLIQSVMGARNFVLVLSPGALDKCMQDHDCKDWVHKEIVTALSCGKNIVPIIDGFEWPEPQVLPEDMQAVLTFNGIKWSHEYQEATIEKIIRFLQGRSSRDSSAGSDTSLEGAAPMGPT
Kind of test: biochemical. The settings on record: SAM-TIR lysate 5 μg/mL, 2 h pre-incubation, 5 μM NAD+, RapidFire MS of NAD+ and ADPR; read-out: SARM1 IC50.
On to `N#Cc1c(O)nsc1Nc1ccccc1C(F)(F)F` [Example 6], for which the IC50 was under 1 µM.
As for `Cc1ccccc1Nc1snc(O)c1C#N` [Example 7], the IC50 was 1 to 5 µM.
As for `N#Cc1c(O)nsc1Nc1cccc(C(F)(F)F)c1` [Example 12], the IC50 was 1 to 5 µM.
Still for that read-out and setting: under `N#Cc1c(O)nsc1Nc1cccc2ncccc12` [Example 27] stands 1 to 5 µM; under `Cn1sc(Nc2ccccc2C(F)(F)F)c(C#N)c1=O` [Example 31], under 1 µM.
The same measure, in the same setting: under `COc1cccc(C#N)c1Nc1sn(CC(C)(C)O)c(=O)c1C(=O)N1CCOCC1` [Example 154] stands over 5 µM; under `N#Cc1c(Nc2cccc(C3CCCNC3)c2C(F)(F)F)s[nH]c1=O` (stereo not drawn) [Example 157], over 5 µM; under `COc1cccc(C(F)(F)F)c1Nc1sn(C)c(=O)c1C(=O)N1CCOCC1` [Example 158], over 5 µM.
Regarding `COc1cccc(C(F)(F)F)c1Nc1s[nH]c(=O)c1C(=O)N1CCOCC1` [Example 159], the IC50 was over 5 µM.
Same read-out and setting: the same measure for `COCCn1sc(N(C)c2ccccc2C(F)(F)F)c(-c2ncon2)c1=O` [Example 160]: over 5 µM; for `N#Cc1c(Nc2cccc(-c3ccc4cc[nH]c4c3)c2C(F)(F)F)s[nH]c1=O` [Example 161]: over 5 µM.
As for `N#Cc1c(N2CCc3ccccc32)s[nH]c1=O` [Example 162], the concentration for half-maximal inhibition (IC50) was over 5 µM.
For the molecule `N#Cc1c(Nc2cccc(C3CCNCC3)c2C(F)(F)F)s[nH]c1=O` [Example 163], the IC50 is over 5 µM.
Still for that read-out and setting: the same measure for `C[C@@H](c1ccccc1)n1sc(Nc2c(Cl)cccc2Cl)c(C(=N)N2CCOCC2)c1=O` [Example 165]: over 5 µM.
On the same count and under the same terms, under `O=c1cc(Nc2ccccc2C(F)(F)F)s[nH]1` [Example 166] stands 1 to 5 µM; under `C[C@@H](c1ccccc1)n1sc(Nc2c(Cl)cccc2Cl)c(C(=O)N2CCOCC2)c1=O` [Example 167], 1 to 5 µM; under `O=c1[nH]sc(Nc2ccccc2C(F)(F)F)c1-c1ccccc1` [Example 168], over 5 µM.
The same measure, in the same setting: under `Cc1c(Nc2ccccc2C(F)(F)F)s[nH]c1=O` [Example 169] stands over 5 µM; under `N#Cc1c(NC2CCCCC2)s[nH]c1=O` [Example 170], over 5 µM.
In the case of `CN(C(=O)c1c(Nc2ccccc2C(F)(F)F)s[nH]c1=O)c1ccccc1` [Example 172], the 50% inhibitory concentration (IC50) fell in the range of 1 to 5 µM.
Same read-out and setting: the same measure for `N#Cc1c(Nc2ccc3nc(C(F)(F)F)[nH]c(=O)c3c2)s[nH]c1=O` [Example 173]: over 5 µM.
`O=C(c1c(Nc2ccccc2C(F)(F)F)s[nH]c1=O)N1CC2CCC1CC2` [Example 174]: the IC50 was over 5 µM.
For `N#Cc1c(Nc2ccccc2C(F)(F)F)sn(CCCCCNC(=O)CCCC[C@@H]2SC[C@@H]3NC(=O)N[C@@H]32)c1=O` [Example 175], the IC50 was under 1 µM.
Still for that read-out and setting: the same measure for `Cc1cc(C)n2c1CC1C=CC(CCC(=O)NCCCCCn3sc(Nc4ccccc4C(F)(F)F)c(C#N)c3=O)=[N+]1[B-]2(F)F` (stereo not drawn) [Example 176]: 1 to 5 µM.
Still for that read-out and setting: under `Cc1cc(C)n2c1C=C1C=CC(CCC(=O)NCCOCCOCCn3sc(Nc4ccccc4C(F)(F)F)c(C#N)c3=O)=[N+]1[B-]2(F)F` [Example 177] stands under 1 µM; under `N#Cc1c(Nc2ccccc2C(F)(F)F)sn(CCOCCOCCNC(=O)CCCC[C@@H]2SC[C@@H]3NC(=O)N[C@@H]32)c1=O` [Example 178], under 1 µM; under `C#CCOCCOCCn1sc(Nc2ccccc2C(F)(F)F)c(C#N)c1=O` [Example 179], under 1 µM.
Consider `C#CCOCCOCCOCCn1sc(Nc2ccccc2C(F)(F)F)c(C#N)c1=O` [Example 180], for which the IC50 was under 1 µM.
